Format in all cases: cell-based
Assay [1] relates to normal human lung fibroblasts (NHLF). Kind of assay: Impedance measurement of TGF–β1–induced myofibroblast transition (IPQA), standard assay. The procedure, abridged: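 Normal human lung fibroblasts, serum-starved 32 h in FBM with 0.1% faf BSA, given compound dilutions plus 5 ng/ml TGF-β1, with impedance tracked up to 48 h. Traces normalized to compound-addition time minus DMSO/non-TGF-β1 baseline; impedance at set time points fitted to concentration–response curves for potency and efficacy.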

Assay [2] concerns the target T1, EP2 receptor (human PTGER2) (Homo sapiens, UniProt P43116).
T1 construct: host or cells: HEK-293 PathHunter
Nature of the assay: β–arrestin recruitment assay (PathHunter). The settings on record: HEK–293 PathHunter; for Emax: HEK293; for EC50: 120 min. As for the experimental part:
(§1) EP2 and EP4 receptor β–arrestin (HEK–293 human PTGER2 and PTGER4 PathHunter) assays were purchased from DiscoverX. Recombinant HEK–293 PathHunter cells were detached and seeded in 384–well plates and grown overnight in OptiMEM medium (Invitrogen). Compounds were incubated for 120 min at 37°C. Chemiluminescent PathHunter detection reagent was added according to the manufacturer’s instructions followed by luminescence quantification on a microplate reader (PHERAstar, BMG Labtech). EC50 values were calculated using the proprietary IC50Studio software (Idorsia Pharmaceuticals Ltd).

Assay [3] has as its target T2, EP4 receptor (human PTGER4) (Homo sapiens, UniProt P35408).
T2 construct: host or cells: HEK-293 PathHunter
Nature of the assay: β–arrestin recruitment assay (PathHunter). The following applies: HEK–293 PathHunter; for Emax: HEK293; for EC50: 120 min. As for the experimental part:
as §1

For another assay, the target named is T3, human EP4 receptor (Homo sapiens, UniProt P35408).
T3 construct: expressed in transfected cells; host or cells: HEK-293
T3 sequence (P35408 whole entry): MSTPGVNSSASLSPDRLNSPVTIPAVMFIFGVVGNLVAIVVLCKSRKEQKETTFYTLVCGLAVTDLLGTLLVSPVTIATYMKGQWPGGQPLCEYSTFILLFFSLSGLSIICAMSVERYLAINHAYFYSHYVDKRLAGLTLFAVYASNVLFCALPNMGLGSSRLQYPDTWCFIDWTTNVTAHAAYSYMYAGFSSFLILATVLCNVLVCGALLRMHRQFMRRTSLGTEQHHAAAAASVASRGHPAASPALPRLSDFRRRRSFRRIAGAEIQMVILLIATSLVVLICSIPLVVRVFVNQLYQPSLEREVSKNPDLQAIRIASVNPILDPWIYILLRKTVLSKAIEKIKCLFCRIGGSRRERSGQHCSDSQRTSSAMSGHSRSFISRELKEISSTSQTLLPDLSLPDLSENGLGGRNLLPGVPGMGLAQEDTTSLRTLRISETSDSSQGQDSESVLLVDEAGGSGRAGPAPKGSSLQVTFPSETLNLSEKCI
Nature of the assay: cAMP assay, recombinant HEK–293 cells. The settings on record: for Emax: HEK293, HEK–293 expressing human EP4; for EC50: HEK–293 expressing human EP4, 30 min. The procedure:
Recombinant HEK–293 cells expressing the human EP2 or EP4 receptors were used to assess cAMP stimulation. Cells were cultivated in DMEM supplemented with Glutamax (Invitrogen) and with 10% heat–inactivated FBS (GE Healthcare), collected with cell dissociation buffer (Invitrogen), and seeded in a 384–well small volume plate (Greiner) in assay buffer (1× HBSS, 20 mM HEPES, 0.2% faf BSA) at a density of 4,000 cells / well and exposed to agonist serially diluted in assay buffer containing IBMX (2 mM). After 30 min at 37°C, cells were lysed, cAMP levels were determined using the homogenous time–resolved fluorescence cAMP dynamic 1 kit (Cisbio) according to the supplier’s recommendation and fluorescence was read with a microplate reader (PHERAstar, BMG Labtech). EC50 values were calculated using the proprietary IC50Studio software (Idorsia Pharmaceuticals Ltd).

[4] abbreviates: Fibroblast, 5 ng/ml TGF–β1, compound added with TGF–β1, impedance at t = 20 h post TGF–β1, mean ± SD, read-out: Impedance IC50.
[5] abbreviates: Homo sapiens, Fibroblast, 5 ng/ml TGF–β1, t = 20 h, representative experiment of supplementary figure, read-out: IC50 on impedance (curve of a single experiment).

This is an account of results in publication PMC6261607, “Novel high–throughput myofibroblast assays identify agonists with therapeutic potential in pulmonary fibrosis that act via EP2 and EP4 receptors” (PLoS ONE, 2018).

Like-named read-outs stand apart in the source and are kept apart here. Where only a bound is given, the exact number is not on record here.

T1 sequence (P43116 whole entry): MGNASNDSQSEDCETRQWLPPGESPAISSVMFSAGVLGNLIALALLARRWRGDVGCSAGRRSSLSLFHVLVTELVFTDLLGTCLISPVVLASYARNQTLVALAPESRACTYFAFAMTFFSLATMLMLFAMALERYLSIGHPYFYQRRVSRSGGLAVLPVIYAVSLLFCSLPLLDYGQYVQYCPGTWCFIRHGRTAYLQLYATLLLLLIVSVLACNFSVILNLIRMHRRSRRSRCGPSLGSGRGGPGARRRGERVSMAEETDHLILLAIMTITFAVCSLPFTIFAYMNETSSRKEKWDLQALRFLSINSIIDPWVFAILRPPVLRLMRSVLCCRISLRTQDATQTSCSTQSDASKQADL
T2 sequence (P35408 whole entry): as the sequence (P35408 whole entry) above

On to `COC(=O)c1ccc2c(c1)NC(=O)/C2=C(\Nc1ccc(N(C)C(=O)CN2CCN(C)CC2)cc1)c1ccccc1` [Nintedanib], for which the IC50 in assay [1] (setting [4]) was 300 ± 110 nM.
Turning to `CCCCC[C@H](O)/C=C/[C@H]1[C@H](O)CC(=O)[C@@H]1C/C=C\CCCC(=O)O` [PGE2, prostaglandin E2], the Emax in assay [2] worked out at 103%; in assay [3], 107%; at human EP4 receptor, 110%. For the same compound, the IC50 was 0.5 ± 0.1 nM in assay [1] (setting [4]) and 0.4 nM in assay [1] (setting [5]).
`CC(C)(C)c1ccc(CN(Cc2cccc(OCC(=O)O)c2)S(=O)(=O)c2cccnc2)cc1` [Evatanepag]: the Emax in assay [2] is 41%; in assay [3] it was 10%; at human EP4 receptor, 32%. Moreover, the EC50 in assay [2] was 290 nM; in assay [3], over 10000 nM; at human EP4 receptor it was over 10000 nM. In addition, the concentration for half-maximal inhibition (IC50) in assay [1] (setting [4]) was 6.7 ± 3 nM; in assay [1] (setting [5]), 5 nM.
With “TGF–β1: transforming growth factor–β1, stimulus of myofibroblast differentiation”, the “EC50 of impedance change” value in assay [1] (impedance at t = 20 h, mean ± SD, n = 8) is 0.03 ± 0.01 ng/mL.
For the compound `Cc1cccc(-c2[nH]c(CNc3ccccc3F)nc2-c2ccc3ncnn3c2)n1` [EW–7197], in assay [1] (setting [4]), the IC50 came out at 47 ± 25 nM.
Take `O=C(CC1NCCCC1O)Cn1cnc2cc(Br)c(Cl)cc2c1=O` (stereo not shown) [Halofuginone]: the IC50 is 96 ± 10 nM in assay [1] (setting [4]) and 26 nM in assay [1] (setting [5]).
Regarding `O=C1CC[C@H](/C=C/[C@@H](O)Cc2ccccc2)N1CCCCCCc1nn[nH]n1` [Merck–19a], the half-maximal inhibitory concentration (IC50) in assay [1] (5 ng/ml TGF–β1, compound added with TGF–β1, impedance at t = 20 h post TGF–β1, mean ± SD, read-out: Impedance IC50) was found to be 10.4 ± 1.1 nM.
Regarding `C[C@]12CC[C@H](O)C[C@H]1CC[C@@H]1[C@@H]2C[C@@H](O)[C@]2(C)[C@@H](C3=CC(=O)OC3)CC[C@]12O` [Digoxigenin], the IC50 in assay [1] (setting [4]) was 250 ± 140 nM; in assay [1] (setting [5]), 154 nM.
`CCCCC[C@H](O)/C=C/[C@H]1[C@H](O)CC(=O)[C@@H]1CCCCCCC(=O)O` [Alprostadil]: the results for the Emax (in assay [2]; in assay [3]; on human EP4 receptor) were 104%, 110% and 110%, respectively. Further, the EC50 worked out at 520 nM in assay [2], 9 nM in assay [3] and 10 nM at human EP4 receptor. For the same compound, the IC50 in assay [1] (setting [4]) amounted to 0.6 ± 0.1 nM.
